Data taken from ChEMBL document CHEMBL5113542, “Highly Potent and Oral Macrocyclic Peptides as a HIV-1 Protease Inhibitor: mRNA Display-Derived Hit-to-Lead Optimization” (ACS Med Chem Lett, 2022).
pEC50, pIC50: −log10 of the molar value. Starred links: 1 amine or outer side, 2 acyl side, 3 side chain; linkers in the order of their positions; H or OH if unused. Positions of bridges follow the written chain, without caps; N, C: chain ends. Non-standard residues stand in square brackets, D forms with d. Residues, ends and D or L forms follow the SMILES beside them. X3 = O=C([C@H](CCC1=CCC(F)(F)CC1)N[*:1])[*:2]; Trp(1-Me) = Cn1cc(C[C@H](N)C(=O)O)c2ccccc21; 1Nal = N[C@@H](Cc1cccc2ccccc12)C(=O)O; NHCH2CH2SCH2CO = O=C(CSCCN[*:1])[*:2]; NMeF = CN[C@@H](Cc1ccccc1)C(=O)O; hCha = N[C@@H](CCC1CCCCC1)C(=O)O; hPhe = N[C@@H](CCc1ccccc1)C(=O)O; X1 = CC(C)(CN[*:1])SCC(=O)[*:2]; X2 = CC(C)(SCCN[*:1])C(=O)[*:2]; Pen = CC(C)(S)[C@H](N)C(=O)O; αMeV = CC(C)[C@](C)(N)C(=O)O; αMeP = C[C@@]1(C(=O)O)CCCN1

How the values were obtained:
[1] = Solubility of the compound at pH 6.8 incubated for 1 hrs in the presence of taurocholic acid by UHPLC/MS analysis; assay type: physicochemical; details: medium containing taurocholic acid
[2] = Half-life in Sprague-Dawley rat at 2 umol/kg, po or 1 umol/kg, iv administered as single dose by LC-MS/MS analysis; assay type: ADME, organism-based; details: in vivo, dose 2 µmol/kg
[3] = Unbound fraction in rat serum measured after 24 hrs by equilibrium dialysis based LC-MS/MS analysis; assay type: ADME, cell-free
[4] = tested on: Human immunodeficiency virus 1; experiment: Anti-HIV activity against HIV-1 3B strain infected in human MT4 cells assessed as inhibition of virus-induced cell death preincubated with compound for 1 hrs followed by viral infection and measured after 4 days by MTT assay; assay type: functional, organism-based; details: Human immunodeficiency virus 1, 3B
[5] = Metabolic stability in human liver microsomes incubated for 30 mins in the presence of NADPH by LC-MS/MS analysis; assay type: ADME, Microsome; details: read-out: Stability
[6] = Metabolic stability in human liver S9 fraction incubated for 60 mins by LC-MS/MS analysis; assay type: ADME, subcellular; details: read-out: Stability
[7] = Volume of distribution at steady state in Sprague-Dawley rat at 2 umol/kg, po or 1 umol/kg, iv administered as single dose by LC-MS/MS analysis; assay type: ADME, organism-based; details: in vivo, dose 1 µmol/kg
[8] = molecular target: Human immunodeficiency virus type 1 protease (Human immunodeficiency virus 1, UniProt Q72874); experiment: Inhibition of HIV-1 protease using EDANS-RESGIFLETSKR-DABCYL as substrate preincubated for 15 mins followed by substrate addition and measured after 60 mins by fluorescence based assay
[9] = Metabolic stability in rat liver microsomes incubated for 30 mins in the presence of NADPH by LC-MS/MS analysis; assay type: ADME, Microsome; details: read-out: Stability
[10] = Oral bioavailability in Sprague-Dawley rat at 2 umol/kg administered as single dose by LC-MS/MS analysis; assay type: ADME, organism-based; details: in vivo, at 2 µmol/kg

SMILES | solubility at 1 h [1] | half-life [2] | fraction unbound at 24 h [3] | pEC50 [4] | remaining at 0.5 h [5] | remaining at 1 h [6] | Vdss [7] | pIC50 [8] | remaining at 0.5 h [9] | bioavailability [10]
CC(C)C[C@@H]1NC(=O)[C@H](C(C)C)NC(=O)[C@@H]2CCCN2C(=O)[C@H](C(C)C)NC(=O)[C@H](Cc2ccccc2)NC(=O)CSCCNC(=O)CNC(=O)[C@H](Cc2ccccc2)N(C)C(=O)[C@H](CC(C)C)NC(=O)[C@H](Cc2c[nH]c3ccccc23)NC1=O (cyclo(FVPVLWL[NMeF]G[NHCH2CH2SCH2CO])) | 26 µM | 0.7 h | 0.011 | 6.02 | 3% | 23% | 0.1 L/kg | 9.00 | 29% | –
CC(C)C[C@@H]1NC(=O)[C@H](C(C)C)NC(=O)[C@]2(C)CCCN2C(=O)[C@H](C(C)C)NC(=O)[C@H](Cc2ccccc2)NC(=O)CSCCNC(=O)[C@H](C)NC(=O)[C@H](Cc2ccccc2)N(C)C(=O)[C@H](CC(C)C)NC(=O)[C@H](CCC2CCCCC2)NC1=O (cyclo(A[NHCH2CH2SCH2CO]FV[αMeP]VL[hCha]L[NMeF])) | – | 1.6 h | 0.001 | 7.62 | 8% | – | 0.8 L/kg | 9.55 | 53% | –
COC(=O)[C@H]1NC(=O)[C@H](C)NC(=O)[C@H](Cc2ccccc2)N(C)C(=O)[C@H](CC(C)C)NC(=O)[C@H](CCC2CCCCC2)NC(=O)[C@H](CC(C)C)NC(=O)[C@H](C(C)C)NC(=O)[C@]2(C)CCCN2C(=O)[C@H](C(C)C)NC(=O)[C@H](Cc2ccccc2)NC(=O)CSC1(C)C ({CH2CO}-FV[αMeP]VL[hCha]L[NMeF]A[Pen]-OMe; thioether N-10) | 10 µM | 3.9 h | 0.001 | 7.43 | 23% | – | 1.9 L/kg | 8.45 | 63% | 3.3%
CC(C)C[C@@H]1NC(=O)[C@H](C(C)C)NC(=O)[C@]2(C)CCCN2C(=O)[C@H](C(C)C)NC(=O)[C@H](Cc2ccccc2)NC(=O)CSCCNC(=O)[C@H](Cc2ccccc2)N(C)C(=O)[C@H](CC(C)C)NC(=O)[C@H](Cc2cccc3ccccc23)NC1=O (cyclo([1Nal]L[NMeF][NHCH2CH2SCH2CO]FV[αMeP]VL)) | – | – | – | 7.52 | – | 86% | – | 9.11 | – | –
CC(C)C[C@@H]1NC(=O)[C@H](C(C)C)NC(=O)[C@@H]2CCCN2C(=O)[C@H](C(C)C)NC(=O)[C@H](Cc2ccccc2)NC(=O)CSCCNC(=O)[C@H](Cc2ccccc2)N(C)C(=O)[C@H](CC(C)C)NC(=O)[C@H](Cc2cccc3ccccc23)NC1=O (cyclo([1Nal]L[NMeF][NHCH2CH2SCH2CO]FVPVL)) | – | – | – | 6.49 | – | 46% | – | 9.17 | – | –
CC(C)C[C@@H]1NC(=O)[C@H](C(C)C)NC(=O)[C@]2(C)CCCN2C(=O)[C@H](C(C)C)NC(=O)[C@H](Cc2ccccc2)NC(=O)CSCCNC(=O)CNC(=O)[C@H](Cc2ccccc2)N(C)C(=O)[C@H](CC(C)C)NC(=O)[C@H](CCC2CCCCC2)NC1=O (cyclo(FV[αMeP]VL[hCha]L[NMeF]G[NHCH2CH2SCH2CO])) | – | – | – | 7.54 | – | 85% | – | 9.43 | – | –
CC(C)C[C@@H]1NC(=O)[C@H](C(C)C)NC(=O)[C@]2(C)CCCN2C(=O)[C@H](C(C)C)NC(=O)[C@H](Cc2ccccc2)NC(=O)CSCCNC(=O)[C@H](Cc2ccccc2)N(C)C(=O)[C@H](CC(C)C)NC(=O)[C@H](CCC2CCCCC2)NC1=O (cyclo(FV[αMeP]VL[hCha]L[NMeF][NHCH2CH2SCH2CO])) | – | – | – | 7.92 | – | – | – | 9.54 | – | –
CC(C)C[C@@H]1NC(=O)[C@H](C(C)C)NC(=O)[C@]2(C)CCCN2C(=O)[C@H](C(C)C)NC(=O)[C@H](Cc2ccccc2)NC(=O)CSCCNC(=O)[C@H](Cc2ccccc2)N(C)C(=O)[C@H](CC(C)C)NC(=O)[C@H](CCc2ccccc2)NC1=O (cyclo(FV[αMeP]VL[hPhe]L[NMeF][NHCH2CH2SCH2CO])) | – | – | – | 7.55 | – | – | – | 9.35 | – | –
CC(C)C[C@@H]1NC(=O)[C@H](C(C)C)NC(=O)[C@@H]2CCCN2C(=O)[C@H](C(C)C)NC(=O)[C@H](Cc2ccccc2)NC(=O)CSCCNC(=O)[C@H](Cc2ccccc2)N(C)C(=O)[C@H](CC(C)C)NC(=O)[C@H](Cc2c[nH]c3ccccc23)NC1=O (cyclo(FVPVLWL[NMeF][NHCH2CH2SCH2CO])) | – | – | – | 6.21 | – | – | – | 8.09 | – | –
CC(C)C[C@@H]1NC(=O)[C@H](C(C)C)NC(=O)[C@]2(C)CCCN2C(=O)[C@H](C(C)C)NC(=O)[C@H](Cc2ccccc2)NC(=O)CSC(C)(C)CNC(=O)[C@H](C)NC(=O)[C@H](Cc2ccccc2)N(C)C(=O)[C@H](CC(C)C)NC(=O)[C@H](CCC2CCCCC2)NC1=O (cyclo(A[X1]FV[αMeP]VL[hCha]L[NMeF])) | – | 2 h | 0.001 | 7.96 | 20% | – | 0.7 L/kg | 9.21 | 60% | 0.2%
CC(C)C[C@@H]1NC(=O)[C@H](C(C)C)NC(=O)[C@]2(C)CCCN2C(=O)[C@H](C(C)C)NC(=O)[C@H](Cc2ccccc2)NC(=O)CSCCNC(=O)[C@H](Cc2ccccc2)NC(=O)[C@H](Cc2ccccc2)N(C)C(=O)[C@H](CC(C)C)NC(=O)[C@H](CCC2CCCCC2)NC1=O (cyclo(FV[αMeP]VL[hCha]L[NMeF]F[NHCH2CH2SCH2CO])) | – | – | – | 7.25 | – | – | – | 8.63 | – | –
CC(C)C[C@@H]1NC(=O)[C@H](C(C)C)NC(=O)[C@]2(C)CCCN2C(=O)[C@H](C(C)C)NC(=O)[C@H](Cc2ccccc2)NC(=O)CSCCNC(=O)[C@H](CC(C)C)NC(=O)[C@H](Cc2ccccc2)N(C)C(=O)[C@H](CC(C)C)NC(=O)[C@H](CCC2CCCCC2)NC1=O (cyclo(FV[αMeP]VL[hCha]L[NMeF]L[NHCH2CH2SCH2CO])) | – | – | – | 7.21 | – | – | – | 8.64 | – | –
CC(C)C[C@@H]1NC(=O)[C@](C)(C(C)C)NC(=O)[C@@H]2CCCN2C(=O)[C@H](C(C)C)NC(=O)[C@H](Cc2ccccc2)NC(=O)CSCCNC(=O)[C@H](Cc2ccccc2)N(C)C(=O)[C@H](CC(C)C)NC(=O)[C@H](Cc2cccc3ccccc23)NC1=O (cyclo([1Nal]L[NMeF][NHCH2CH2SCH2CO]FVP[αMeV]L)) | – | – | – | 6.92 | – | 69% | – | 9.36 | – | –
CC(C)C[C@@H]1NC(=O)[C@H](C(C)C)NC(=O)[C@]2(C)CCCN2C(=O)[C@H](C(C)C)NC(=O)[C@H](Cc2ccccc2)NC(=O)CSCCNC(=O)[C@H](Cc2ccccc2)N(C)C(=O)[C@H](CC(C)C)NC(=O)[C@H](CCC2=CCC(F)(F)CC2)NC1=O (cyclo(FV[αMeP]VL[X3]L[NMeF][NHCH2CH2SCH2CO])) | – | – | – | 8.00 | – | – | – | 9.68 | – | –
CC(C)C[C@@H]1NC(=O)[C@H](C(C)C)NC(=O)[C@]2(C)CCCN2C(=O)[C@H](C(C)C)NC(=O)[C@H](Cc2ccccc2)NC(=O)C(C)(C)SCCNC(=O)[C@H](C)NC(=O)[C@H](Cc2ccccc2)N(C)C(=O)[C@H](CC(C)C)NC(=O)[C@H](CCC2CCCCC2)NC1=O (cyclo(A[X2]FV[αMeP]VL[hCha]L[NMeF])) | – | – | – | 6.82 | 28% | – | – | 7.82 | 46% | –
CC(C)C[C@@H]1NC(=O)[C@H](C(C)C)NC(=O)[C@@H]2CCCN2C(=O)[C@H](C(C)C)NC(=O)[C@H](Cc2ccccc2)NC(=O)CSCCNC(=O)[C@H](Cc2ccccc2)N(C)C(=O)[C@H](CC(C)C)NC(=O)[C@H](Cc2cn(C)c3ccccc23)NC1=O (cyclo(FVPVL[Trp(1-Me)]L[NMeF][NHCH2CH2SCH2CO])) | – | – | – | 5.82 | – | – | – | 8.10 | – | –
